# Measured values from patent publication US20160067161A1, “COSMETIC OR PHARMACEUTICAL COMPOSITION FOR RESISTING SKIN AGEING THROUGH AN ANTI-INFLAMMATORY ACTION” (GIULIANI S.P.A., priority 2013, published 2016).
# Assays:
# NCTC 2544 cells = assay: ROS antioxidant test (DCFH-DA spectrofluorometry) on NCTC 2544 cells; format: cell-based, human; settings: 500 μM, 1.5 hours (FIG. 3); for decrease in intracellular concentration of ROS produced compared with H2O2 control: test compound at 500 nM, 1 μM, 1 mM, α-tocopherol 250 μg/ml (580 μM)
# Text: Samples of a compound of the invention, N^1-methylspermidine trihydrochloride salt, i.e. N-(3-aminopropyl)-N^1-methyl-1,4-butanediamine 3HCl, were subjected to the following antioxidant test to reactive oxygen species (ROS).
# The production of ROS was monitored spectrofluorometrically using 2′,7′-dichlorofluorescein diacetate (DCFH-DA), as described by Tobi et al. (Tobi S E, Paul N, T McMillan J. J Photochem Photobiol, B 2000: 57: 102-112).
# The NCTC 2544 cells (about 80% confluence) were detached with trypsin/EDTA and seeded at a density of 5×10^4 cells per well in 96-well plates. Subsequently, the cells were treated with samples of N^1-methylspermidine, at the following concentrations: 500 nM, 1 μm and 500 μm, 1 mM (final concentration in the culture medium).
# α-tocopherol (250 μg/ml, 580 μm) was used as a comparison of the antioxidant activity.
# The plates were incubated at 37° C. in 5% CO2 for 1.5 hours. Cells cultured on basal medium with 2.5% FBS were used as a control.
# The results are shown in the graph of FIG. 3, wherein N^1-methylspermidine trichydrochloride salt is for brevity indicated as ‘methylspermidine’.
# TNF-α = assay: Anti-inflammatory test: TNF-α gene expression by qRT-PCR in LPS-treated NCTC2544 keratinocytes; format: cell-based, human; settings: for TNF-α expression: NCTC2544 cells + LPS 5 μg/ml, 16 hours of treatment
# Description: An immortalized line of human keratinocytes NCTC2544 is used (Perry, V. P., Sanford, K. K., Evans, V. J., Hyatt, G. W., Earle, W. R., 1957: Establishment of clones of epithelial cells from human skin. J Natl Cancer Inst. 18 (5): 709-717) cultured in sterile flasks ([…]), incubated at 37° C. in a humid atmosphere at 5% CO2 in MEM (Minimum Essential Medium) added with bovine fetal serum (FBS), 2 mm L-glutamine, 1% non-essential amino acids, in the presence of 1% penicillin and streptomycin.
# A 1:3 split is done every 2 days upon achieving the monolayer by washing with 1× PBS (phosphate buffer without Ca^2+ and Mg^2+) and detachment of cells with a trypsin-EDTA solution at 37° C. for 2 minutes.
# Negative control: human keratinocytes NCTC2544 cultured in EMEM (EBSS) at 2.5% FBS, supplemented with 1% L-glutamine 2 mM, 1% solution of amino acids and 1% mixture of penicillin (10,000 U/ml)/streptomycin (10,000 Ug/ml) at 37° C., 5% CO2. Positive control: human keratinocytes NCTC2544 treated with lipopolysaccharide (LPS, 5 μg/ml) in EMEM (EBSS) at 2.5% FBS, supplemented with 1% L-glutamine 2 mM, 1% solution of amino acids and 1% mixture of penicillin (10,000 U/ml)/streptomycin (10,000 Ug/ml) at 37° C., 5% CO2.
# The gene expression of TNF-α on NCTC2544 cells treated with the samples was evaluated by qRT-PCR.
# The analysis of gene expression involves four steps:
# 1. Treatment of cells with the samples for 16 and 24 hours;
# 3. Retrotranscription in cDNA;
# In the experimental conditions, in relation with the results obtained in a previous MTT test, samples of spermidine and N^1-methyl-spermidine were tested at the following concentrations: 1 μM, 500 nM and 1 mM (final concentration in the medium). Said positive and negative controls were also tested.
# When the human keratinocyte cells NCTC 2544 have reached about 80% confluence, they are detached with trypsin/EDTA and seeded at a density of 1×10^6 cells/ml in 12-well plates and incubated at 37° C., 5% CO2 (24 h).
# The above samples of spermidine and N^1-methyl-spermidine were dissolved in EMEM, supplemented with 2.5% FCS, 1% 2 mM L-glutamine, 1% NEAA solution and 1% penicillin (10,000 U/ml)/streptomycin ([…]).
# The controls, containing only culture medium (negative control) and culture medium plus LPS ([…]) (positive control), were included in each plate. The cells were exposed to the action of the samples of spermidine and N^1-methyl-spermidine at the above concentrations of 1 μM, 500 nM and 1 mM: a total of six samples.
# LPS at a concentration of 5 μg/ml was added to each well (except in the negative control). Each sample was tested in replicate.
# With reference to the graphs in FIGS. 4 and 5, samples of further compounds of the invention as specified below were subjected to anti-inflammatory test on an immortalized line of human keratinocytes NCTC2544 substantially as described above, to the general part whereof reference shall be made.
# The controls containing only culture medium (negative control) and culture medium plus LPS (5 μg/ml) (positive control), were included in each plate.
# The cells were exposed to the action of samples of the compounds N^1-ethylspermidine, N^1-propylspermidine, N^1-isobutylspermidine at the concentrations of 1 nM and 1 μM.
# The gene expression data were obtained by RT-PCR.
structure (smiles),measurement,setting,value
"Cc1c(C)c2c(c(C)c1O)CC[C@@](C)(CCC[C@H](C)CCC[C@H](C)CCCC(C)C)O2 [α-tocopherol, reference compound]",decrease in intracellular concentration of ROS produced compared with H2O2 control,NCTC 2544 cells,decrease substantially comparable
"NCCCCNCCCN [spermidine, reference compound]",TNF-α expression,TNF-α; 1 nM (FIG. 1),13.99%
"CN(CCCN)CCCCN [N^1-methylspermidine, N-(3-aminopropyl)-N^1-methyl-1,4-butanediamine]",anti-inflammatory effects after 24 hours compared with 16 hours,TNF-α; 24 hours of treatment (FIG. 2),remain almost unchanged
same,anti-inflammatory effect compared with spermidine,"TNF-α; 24 hours of treatment, 500 nM (FIG. 2)",significantly higher anti-inflammatory effect
same,TNF-α expression,TNF-α; 1 nM (FIG. 1),7.94%
same,TNF-α expression,TNF-α; 500 nM (FIG. 1),1.52%
same,anti-inflammatory effect (TNF-α gene expression),"TNF-α; all concentrations examined, 16 and 24 hours",anti-inflammatory effect
"CN(CCCN)CCCCN.Cl.Cl.Cl [N-(3-aminopropyl)-N^1-methyl-1,4-butanediamine 3HCl]",antioxidant activity compared with α-tocopherol (580 μM),NCTC 2544 cells,higher antioxidant activity
same,decrease in intracellular concentration of ROS produced compared with H2O2 control,NCTC 2544 cells,decrease substantially comparable
